The results in this text go back to patent publication EP2899280A1, “Process for the enzymatic production of oligo-/polyesters” (Ernst-Moritz-Arndt-Universität Greifswald, priority 2014, dated 2015).

The nature of the series: Autohydrolysis of ε-CL (pH-STAT titration). The class given is physicochemical. The conditions noted are these: Distilled water (pH 7.0), 30 °C, based on 100 mM ε-CL as 100 %. The method, then: All measurements were done with the 877 Titrino Plus from Metrohm (Filderstadt, Germany).
Using the pH-STAT, the autohydrolysis of ε-CL at different temperatures and pH values was determined. Furthermore, it was investigated whether CAL-A is able to hydrolyze ε-CL in an aqueous reaction system. The Bacillus subtilis esterase 2 (BS2) served as positive control in the hydrolysis of ε-caprolactone to 6-hydroxycaproic acid leading to a measureable pH change in the pH-STAT.
For the determination of autohydrolysis, 100 mM ε-CL (Sigma-Aldrich, St- Louis, United States; 97 % purity) were dissolved in 20 ml Tris-HCl buffer (20 mM, pH 7.5) or 20 ml distilled water. The measurement was carried out at 25°C and 30°C over 15 min. For titration, 0.1 N NaOH was used to maintain the pH value constant.

With `O=C1CCCCCO1` [ε-CL, ε-caprolactone], the “Conversion [%] (autohydrolysis)” value is given as 1.075 ± 0,00090%.
